Laboratory results as given in patent US20140134648A1, “METHODS OF DETERMINING THE HEALTH STATUS OF AN INDIVIDUAL” (NODALITY, INC., priority 2008, published 2014).
Entries after “also recorded” stand apart in the source; their conditions may differ.

Test system: CD34+ myeloblast cells in healthy BMMCs
Test: Effects of therapeutics on healthy bone marrow mononuclear cells: CD45 versus CD34 expression by flow cytometry
Assay type: cell-based
Conditions: live healthy BMMCs, 1:3 dilutions, 100 μM to 0.0017 μM, after 24 hours

Row | SMILES | loss / viability of the rare population of CD34+ myeloblast cells
1 | Nc1ncn([C@@H]2O[C@H](CO)[C@@H](O)[C@H]2O)c(=O)n1 [5-Azacytidine] | dose-dependent loss of a rare population of CD34+ myeloblast cells; also recorded: concentration dependent loss of CD34+ myeloblast cells
2 | O=C(CCCCCCC(=O)Nc1ccccc1)NO [Vorinostat] | selective loss of rare population of CD34+ myeloblast cells in a dose-dependent fashion; also recorded: concentration dependent loss of CD34+ myeloblast cells
